Our source for the CC50 values is paper PMC7156458, “Synthetic biology based construction of biological activity-related library of fungal decalin-containing diterpenoid pyrones” (Nature Communications, 2020).

Broadly, the CC50 is the concentration at which the toxic effect on the cells reaches its halfway point. Higher therefore signals better tolerance by the cells.

The nature of this series: cytotoxicity in the anti-HIV assay (CC50). The format is cell-based. Conditions: human, MAGI cells (HeLa-CD4-LTR/beta-galactosidase).

Molecule `C=C1CC[C@@H]2[C@](C)(CC[C@H]3O[C@H](C=C(C)C)C[C@@]23C)[C@@H]1Cc1c(OC)oc(CO)c(C)c1=O` [Compound 20] gave a CC50 above 10 µM.
